Reference: ChEMBL document CHEMBL4765227, “Hit to lead optimization of a series of N-[4-(1,3-benzothiazol-2-yl)phenyl]acetamides as monoacylglycerol lipase inhibitors with potential anticancer activity” (Eur J Med Chem, 2016)

Key:
Assay type in all cases: functional
Settings in all cases: read-out: GI
CCRF-CEM = experiment: Growth inhibition of human CCRF-CEM cells at 10 uM incubated for 48 hrs by sulforhodamine B assay relative to control
TK-10 = experiment: Growth inhibition of human TK-10 cells at 10 uM incubated for 48 hrs by sulforhodamine B assay relative to control
IGROV-1 = experiment: Growth inhibition of human IGROV-1 cells at 10 uM incubated for 48 hrs by sulforhodamine B assay relative to control
786-0 = experiment: Growth inhibition of human 786-0 cells at 10 uM incubated for 48 hrs by sulforhodamine B assay relative to control
COLO 205 = experiment: Growth inhibition of human COLO 205 cells at 10 uM incubated for 48 hrs by sulforhodamine B assay relative to control
MDA-MB-468 = experiment: Growth inhibition of human MDA-MB-468 cells at 10 uM incubated for 48 hrs by sulforhodamine B assay relative to control
SK-MEL-5 = experiment: Growth inhibition of human SK-MEL-5 cells at 10 uM incubated for 48 hrs by sulforhodamine B assay relative to control
A549 = experiment: Growth inhibition of human A549/ATCC cells at 10 uM incubated for 48 hrs by sulforhodamine B assay relative to control
SF-268 = experiment: Growth inhibition of human SF-268 cells at 10 uM incubated for 48 hrs by sulforhodamine B assay relative to control
NCI/ADR-RES = experiment: Growth inhibition of human NCI/ADR-RES cells at 10 uM incubated for 48 hrs by sulforhodamine B assay relative to control
M14 = experiment: Growth inhibition of human M14 cells at 10 uM incubated for 48 hrs by sulforhodamine B assay relative to control
Malme-3M = experiment: Growth inhibition of human Malme-3M cells at 10 uM incubated for 48 hrs by sulforhodamine B assay relative to control
SNB-75 = experiment: Growth inhibition of human SNB-75 cells at 10 uM incubated for 48 hrs by sulforhodamine B assay relative to control
ACHN = experiment: Growth inhibition of human ACHN cells at 10 uM incubated for 48 hrs by sulforhodamine B assay relative to control
UACC-257 = experiment: Growth inhibition of human UACC-257 cells at 10 uM incubated for 48 hrs by sulforhodamine B assay relative to control
DU-145 = experiment: Growth inhibition of human DU-145 cells at 10 uM incubated for 48 hrs by sulforhodamine B assay relative to control
HCC 2998 = experiment: Growth inhibition of human HCC 2998 cells at 10 uM incubated for 48 hrs by sulforhodamine B assay relative to control
OVCAR-3 = experiment: Growth inhibition of human OVCAR-3 cells at 10 uM incubated for 48 hrs by sulforhodamine B assay relative to control
SK-OV-3 = experiment: Growth inhibition of human SK-OV-3 cells at 10 uM incubated for 48 hrs by sulforhodamine B assay relative to control
SK-MEL-28 = experiment: Growth inhibition of human SK-MEL-28 cells at 10 uM incubated for 48 hrs by sulforhodamine B assay relative to control
OVCAR-4 = experiment: Growth inhibition of human OVCAR-4 cells at 10 uM incubated for 48 hrs by sulforhodamine B assay relative to control
SR = experiment: Growth inhibition of human SR cells at 10 uM incubated for 48 hrs by sulforhodamine B assay relative to control
SNB-19 = experiment: Growth inhibition of human SNB-19 cells at 10 uM incubated for 48 hrs by sulforhodamine B assay relative to control
RXF 393 = experiment: Growth inhibition of human RXF 393 cells at 10 uM incubated for 48 hrs by sulforhodamine B assay relative to control
U-251 = experiment: Growth inhibition of human U-251 cells at 10 uM incubated for 48 hrs by sulforhodamine B assay relative to control
OVCAR-5 = experiment: Growth inhibition of human OVCAR-5 cells at 10 uM incubated for 48 hrs by sulforhodamine B assay relative to control
HT-29 = experiment: Growth inhibition of human HT-29 cells at 10 uM incubated for 48 hrs by sulforhodamine B assay relative to control
BT-549 = experiment: Growth inhibition of human BT-549 cells at 10 uM incubated for 48 hrs by sulforhodamine B assay relative to control
HCT-15 = experiment: Growth inhibition of human HCT-15 cells at 10 uM incubated for 48 hrs by sulforhodamine B assay relative to control
MCF7 = experiment: Growth inhibition of human MCF7 cells at 10 uM incubated for 48 hrs by sulforhodamine B assay relative to control
HCT-116 = experiment: Growth inhibition of human HCT-116 cells at 10 uM incubated for 48 hrs by sulforhodamine B assay relative to control
RPMI-8226 = experiment: Growth inhibition of human RPMI-8226 cells at 10 uM incubated for 48 hrs by sulforhodamine B assay relative to control
UACC-62 = experiment: Growth inhibition of human UACC-62 cells at 10 uM incubated for 48 hrs by sulforhodamine B assay relative to control
PC-3 = experiment: Growth inhibition of human PC-3 cells at 10 uM incubated for 48 hrs by sulforhodamine B assay relative to control
MOLT-4 = experiment: Growth inhibition of human MOLT-4 cells at 10 uM incubated for 48 hrs by sulforhodamine B assay relative to control
Hs-578T = experiment: Growth inhibition of human Hs-578T cells at 10 uM incubated for 48 hrs by sulforhodamine B assay relative to control
NCI-H226 = experiment: Growth inhibition of human NCI-H226 cells at 10 uM incubated for 48 hrs by sulforhodamine B assay relative to control
SF-295 = experiment: Growth inhibition of human SF-295 cells at 10 uM incubated for 48 hrs by sulforhodamine B assay relative to control
HOP-62 = experiment: Growth inhibition of human HOP-62 cells at 10 uM incubated for 48 hrs by sulforhodamine B assay relative to control
CAKI-1 = experiment: Growth inhibition of human CAKI-1 cells at 10 uM incubated for 48 hrs by sulforhodamine B assay relative to control
T47D = experiment: Growth inhibition of human T47D cells at 10 uM incubated for 48 hrs by sulforhodamine B assay relative to control
LOX IMVI = experiment: Growth inhibition of human LOX IMVI cells at 10 uM incubated for 48 hrs by sulforhodamine B assay relative to control
HL-60(TB) = experiment: Growth inhibition of human HL-60(TB) cells at 10 uM incubated for 48 hrs by sulforhodamine B assay relative to control
HOP-92 = experiment: Growth inhibition of human HOP-92 cells at 10 uM incubated for 48 hrs by sulforhodamine B assay relative to control

O=C(Cn1c2ccccc2c2ccccc21)Nc1ccc(-c2nc3ccccc3s2)cc1
inhibition of growth at 10 µM (CCRF-CEM): -5.65% | inhibition of growth at 10 µM (TK-10): -1.97% | inhibition of growth at 10 µM (IGROV-1): 13.4% | inhibition of growth at 10 µM (786-0): -1.17% | inhibition of growth at 10 µM (COLO 205): -8.95% | inhibition of growth at 10 µM (MDA-MB-468): 83.4% | inhibition of growth at 10 µM (SK-MEL-5): 6.47% | inhibition of growth at 10 µM (A549): 0.89% | inhibition of growth at 10 µM (SF-268): 6.55% | inhibition of growth at 10 µM (NCI/ADR-RES): -1.93% | inhibition of growth at 10 µM (M14): -14% | inhibition of growth at 10 µM (Malme-3M): 6.83% | inhibition of growth at 10 µM (SNB-75): 3.22% | inhibition of growth at 10 µM (ACHN): -4.15% | inhibition of growth at 10 µM (UACC-257): -1.24% | inhibition of growth at 10 µM (DU-145): -2.93% | inhibition of growth at 10 µM (HCC 2998): 0.28% | inhibition of growth at 10 µM (OVCAR-3): -4.48% | inhibition of growth at 10 µM (SK-OV-3): -7.77% | inhibition of growth at 10 µM (SK-MEL-28): -7.99% | inhibition of growth at 10 µM (OVCAR-4): -2.83% | inhibition of growth at 10 µM (SR): 15.7% | inhibition of growth at 10 µM (SNB-19): -4.51% | inhibition of growth at 10 µM (RXF 393): -10.8% | inhibition of growth at 10 µM (U-251): 6.01% | inhibition of growth at 10 µM (OVCAR-5): 0.62% | inhibition of growth at 10 µM (HT-29): -6.06% | inhibition of growth at 10 µM (BT-549): -5.6% | inhibition of growth at 10 µM (HCT-15): -0.3% | inhibition of growth at 10 µM (MCF7): 67.4% | inhibition of growth at 10 µM (HCT-116): -7.02% | inhibition of growth at 10 µM (RPMI-8226): -18% | inhibition of growth at 10 µM (UACC-62): 4.66% | inhibition of growth at 10 µM (PC-3): -4.16% | inhibition of growth at 10 µM (MOLT-4): 5.92% | inhibition of growth at 10 µM (Hs-578T): -14.2% | inhibition of growth at 10 µM (NCI-H226): 1.21% | inhibition of growth at 10 µM (SF-295): 3.61% | inhibition of growth at 10 µM (HOP-62): -0.99% | inhibition of growth at 10 µM (CAKI-1): 1.03% | inhibition of growth at 10 µM (T47D): 15.5% | inhibition of growth at 10 µM (LOX IMVI): 8.68% | inhibition of growth at 10 µM (HL-60(TB)): -3.61% | inhibition of growth at 10 µM (HOP-92): -7.01%

O=C(Cn1ccnc1)Nc1ccc(-c2nc3ccccc3s2)cc1
inhibition of growth at 10 µM (CCRF-CEM): 30.9% | inhibition of growth at 10 µM (TK-10): 18.2% | inhibition of growth at 10 µM (IGROV-1): 31.1% | inhibition of growth at 10 µM (786-0): 22% | inhibition of growth at 10 µM (COLO 205): 19.2% | inhibition of growth at 10 µM (MDA-MB-468): 99.2% | inhibition of growth at 10 µM (SK-MEL-5): 60.8% | inhibition of growth at 10 µM (A549): 29.7% | inhibition of growth at 10 µM (SF-268): 18.9% | inhibition of growth at 10 µM (NCI/ADR-RES): 11.8% | inhibition of growth at 10 µM (M14): 5.59% | inhibition of growth at 10 µM (SNB-75): 11.2% | inhibition of growth at 10 µM (ACHN): 9.7% | inhibition of growth at 10 µM (UACC-257): 32.4% | inhibition of growth at 10 µM (DU-145): 18.9% | inhibition of growth at 10 µM (HCC 2998): 5.1% | inhibition of growth at 10 µM (OVCAR-3): 37.8% | inhibition of growth at 10 µM (SK-OV-3): 12.2% | inhibition of growth at 10 µM (SK-MEL-28): -4.87% | inhibition of growth at 10 µM (OVCAR-4): 65.2% | inhibition of growth at 10 µM (SR): 63.5% | inhibition of growth at 10 µM (SNB-19): 23.6% | inhibition of growth at 10 µM (RXF 393): -2.19% | inhibition of growth at 10 µM (U-251): 28.1% | inhibition of growth at 10 µM (OVCAR-5): -3.81% | inhibition of growth at 10 µM (HT-29): 6.65% | inhibition of growth at 10 µM (BT-549): 34.9% | inhibition of growth at 10 µM (HCT-15): 13% | inhibition of growth at 10 µM (MCF7): 38.7% | inhibition of growth at 10 µM (HCT-116): 31.9% | inhibition of growth at 10 µM (RPMI-8226): 48% | inhibition of growth at 10 µM (UACC-62): 17.1% | inhibition of growth at 10 µM (PC-3): 34.1% | inhibition of growth at 10 µM (MOLT-4): 31.9% | inhibition of growth at 10 µM (Hs-578T): 13.1% | inhibition of growth at 10 µM (NCI-H226): 33.4% | inhibition of growth at 10 µM (SF-295): 34.5% | inhibition of growth at 10 µM (HOP-62): 16.2% | inhibition of growth at 10 µM (CAKI-1): 33.8% | inhibition of growth at 10 µM (T47D): 48.6% | inhibition of growth at 10 µM (LOX IMVI): 26.6% | inhibition of growth at 10 µM (HL-60(TB)): 22.7% | inhibition of growth at 10 µM (HOP-92): 24.2%
